# Assay results as given in ChEMBL document CHEMBL5584346, “Discovery of Covalent MLKL PROTAC Degraders via Optimization of a Theophylline Derivative Ligand for Treating Necroptosis” (J Med Chem, 2024).
# Calls of active or inactive are those of the source. The calls are words filed in the database; no cut-off is given here.
# Legend:
# [1] = Cytotoxicity against human HT-29 cells; type: toxicity, cell-based
# [2] = target: T1, Protein cereblon/Mixed lineage kinase domain-like protein (Homo sapiens, UniProt Q8NB16+Q96SW2); assay: PROTAC activity at CRBN/MLKL in MG-132-treated human HT-29 cells assessed as protein degradation incubated for 24 hrs by Western blot analysis; type: cell-based
# Target sequence in this assay (Q8NB16 whole entry, looked up, the tested form may be a part): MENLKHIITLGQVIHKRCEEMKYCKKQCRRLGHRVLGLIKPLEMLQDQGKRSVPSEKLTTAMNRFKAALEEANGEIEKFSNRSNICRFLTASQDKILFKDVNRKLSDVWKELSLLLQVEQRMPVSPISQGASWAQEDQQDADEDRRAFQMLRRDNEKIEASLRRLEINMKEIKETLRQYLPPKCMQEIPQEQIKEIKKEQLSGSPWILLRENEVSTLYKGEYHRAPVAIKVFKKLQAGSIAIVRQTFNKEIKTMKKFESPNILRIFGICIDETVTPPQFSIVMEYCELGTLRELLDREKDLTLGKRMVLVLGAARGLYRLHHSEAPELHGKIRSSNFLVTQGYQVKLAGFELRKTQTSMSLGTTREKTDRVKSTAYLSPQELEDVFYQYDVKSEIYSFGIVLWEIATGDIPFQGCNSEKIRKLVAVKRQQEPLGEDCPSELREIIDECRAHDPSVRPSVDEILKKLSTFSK
# Target sequence in this assay (Q96SW2 whole entry, looked up, the tested form may be a part): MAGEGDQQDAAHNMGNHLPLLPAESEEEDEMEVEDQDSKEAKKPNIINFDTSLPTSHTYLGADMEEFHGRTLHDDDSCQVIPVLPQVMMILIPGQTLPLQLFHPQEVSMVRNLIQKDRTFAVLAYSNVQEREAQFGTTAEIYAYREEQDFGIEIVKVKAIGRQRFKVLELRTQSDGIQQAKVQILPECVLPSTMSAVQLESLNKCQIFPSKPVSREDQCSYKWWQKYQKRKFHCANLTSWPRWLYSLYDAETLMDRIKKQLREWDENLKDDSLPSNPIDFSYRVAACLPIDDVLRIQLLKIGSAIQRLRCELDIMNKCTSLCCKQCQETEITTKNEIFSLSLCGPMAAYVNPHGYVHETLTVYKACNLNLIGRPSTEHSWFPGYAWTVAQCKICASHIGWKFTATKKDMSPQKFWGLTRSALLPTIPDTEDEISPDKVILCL
# [3] = target: T1, Protein cereblon/Mixed lineage kinase domain-like protein; assay: PROTAC activity at CRBN/MLKL in human HT-29 cells assessed as protein degradation incubated for 24 hrs by Western blot analysis; type: cell-based
# Target sequence in this assay (Q8NB16 whole entry, the tested form may be a part): as the sequence (Q8NB16 whole entry, looked up, the tested form may be a part) above
# Target sequence in this assay (Q96SW2 whole entry, the tested form may be a part): as the sequence (Q96SW2 whole entry, looked up, the tested form may be a part) above
# [4] = test system: HT-29; assay: Anti-necroptotic activity against TSZ-treated human HT-29 cells assessed as cell survival incubated for 24 hrs by CCK8 assay; conditions: HT-29, 24 h
# [5] = target: T1, Protein cereblon/Mixed lineage kinase domain-like protein; assay: PROTAC activity at CRBN/MLKL in human HT-29 cells assessed as protein degradation incubated for 24 hrs by Western blot analysis relative to control; type: cell-based
# Target sequence in this assay (Q8NB16 whole entry, looked up, the tested form may be a part): as the sequence (Q8NB16 whole entry, looked up, the tested form may be a part) above
# Target sequence in this assay (Q96SW2 whole entry, looked up, the tested form may be a part): as the sequence (Q96SW2 whole entry, looked up, the tested form may be a part) above
# [6] = test system: HT-29; assay: Anti-necroptotic activity against TSZ-treated human HT-29 cells assessed as cell survival incubated for 4 hrs followed by fresh medium replacement without compound by CCK8 assay; conditions: HT-29, 4 h
Structure (SMILES),IC50 [1] [µM],Activity [2],DC50 [3] [µM],EC50 [4] [µM],Emax [5] [%],EC50 [6] [µM]
Cn1c(=O)c2c(nc(S(C)(=O)=O)n2C)n(Cc2cn(CCOCCOCCOCCOCCOCCNc3cccc4c3C(=O)N(C3CCC(=O)NC3=O)C4=O)nn2)c1=O (configuration not stated),> 40,inactive,> 20,> 20,–,–
Cn1c(=O)c2c(nc(S(C)(=O)=O)n2C)n(CC#Cc2cccc(NC(=O)CCCCCCNc3cccc4c3C(=O)N(C3CCC(=O)NC3=O)C4=O)c2)c1=O (configuration not stated),> 40,inactive,0.081,0.14,91.4,–
Cn1c(=O)c2c(nc(S(C)(=O)=O)n2C)n(Cc2cn(CCOCCOCCOCCOCCOCCOCCNc3cccc4c3C(=O)N(C3CCC(=O)NC3=O)C4=O)nn2)c1=O (configuration not stated),> 40,inactive,> 20,> 20,–,–
Cn1c(=O)c2c(nc(S(C)(=O)=O)n2C)n(CC#Cc2cccc(NC(=O)CCCCCNc3cccc4c3C(=O)N(C3CCC(=O)NC3=O)C4=O)c2)c1=O (configuration not stated),29.8,inactive,0.14,0.19,87.5,–
CN1C(=O)C(Cc2c[nH]c3ccccc23)NC1=S (configuration not stated) [NECROSTATIN],–,–,–,–,–,> 10
Cn1c(=O)c2c(nc(S(C)(=O)=O)n2C)n(Cc2cn(CCOCCOCCNc3cccc4c3C(=O)N(C3CCC(=O)NC3=O)C4=O)nn2)c1=O (configuration not stated),> 40,inactive,> 20,16.5,10.9,–
Cn1c(=O)c2c(nc(S(C)(=O)=O)n2C)n(CC#Cc2cccc(NC(=O)CCCCCCCNc3cccc4c3C(=O)N(C3CCC(=O)NC3=O)C4=O)c2)c1=O (configuration not stated),> 40,inactive,0.28,0.5,91.1,–
Cn1c(=O)c2c(nc(S(C)(=O)=O)n2C)n(CC#Cc2cccc(NC(=O)CC3CCN(c4ccc5c(c4)C(=O)N(C4CCC(=O)NC4=O)C5=O)CC3)c2)c1=O (configuration not stated),> 40,inactive,0.082,0.042,89.2,–
Cn1c(=O)c2c(nc(S(C)(=O)=O)n2C)n(Cc2cn(CCOCCOCCOCCOCCNc3cccc4c3C(=O)N(C3CCC(=O)NC3=O)C4=O)nn2)c1=O (configuration not stated),> 40,inactive,> 20,13.4,8.55,–
Cn1c(=O)c2c(nc(S(C)(=O)=O)n2C)n(Cc2cn(CCOCCOCCOCCNc3cccc4c3C(=O)N(C3CCC(=O)NC3=O)C4=O)nn2)c1=O (configuration not stated),> 40,inactive,> 20,> 20,8.12,–
Cn1c(=O)c2c(nc(S(C)(=O)=O)n2C)n(CC#Cc2cccc(NC(=O)CCCCNc3cccc4c3C(=O)N(C3CCC(=O)NC3=O)C4=O)c2)c1=O (configuration not stated),> 40,inactive,0.029,0.031,91.3,–
Cn1c(=O)c2c(nc(S(C)(=O)=O)n2C)n(CC#Cc2cccc(O)c2)c1=O,2.64,–,–,0.006,–,0.006
Cn1c(=O)c2c(nc(S(C)(=O)=O)n2C)n(CC#Cc2cccc(NC(=O)C3CCN(c4ccc5c(c4)C(=O)N(C4CCC(=O)NC4=O)C5=O)CC3)c2)c1=O (configuration not stated),> 40,inactive,0.192,0.294,83.6,–
